Assay results reported in publication PMC10454728, “A Comparative Study on the Lysosomal Cation Channel TMEM175 Using Automated Whole-Cell Patch-Clamp, Lysosomal Patch-Clamp, and Solid Supported Membrane-Based Electrophysiology: Functional Characterization and High-Throughput Screening Assay Development” (International Journal of Molecular Sciences, 2023).

Experiments:
TMEM175 [1] = target: T1, TMEM175 (Homo sapiens, UniProt Q9BSA9); experiment: SSME cation selectivity assay with 4-AP block (SURFE2R 96SE); type: biochemical; details: 10 mM 4-AP
T1 sequence (Q9BSA9 1-504): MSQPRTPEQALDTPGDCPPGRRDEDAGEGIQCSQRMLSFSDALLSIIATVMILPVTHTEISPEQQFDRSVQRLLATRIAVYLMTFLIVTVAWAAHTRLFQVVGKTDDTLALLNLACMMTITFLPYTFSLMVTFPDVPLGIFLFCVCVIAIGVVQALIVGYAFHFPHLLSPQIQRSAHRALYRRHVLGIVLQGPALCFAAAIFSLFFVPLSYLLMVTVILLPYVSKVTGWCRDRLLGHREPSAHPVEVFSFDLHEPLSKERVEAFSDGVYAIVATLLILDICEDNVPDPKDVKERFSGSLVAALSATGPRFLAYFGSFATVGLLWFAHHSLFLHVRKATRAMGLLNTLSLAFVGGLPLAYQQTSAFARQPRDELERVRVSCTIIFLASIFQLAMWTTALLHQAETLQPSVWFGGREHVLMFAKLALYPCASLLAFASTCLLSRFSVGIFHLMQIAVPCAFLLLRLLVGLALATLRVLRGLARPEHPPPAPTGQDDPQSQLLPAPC
Excerpt: We performed the same experiment on lysosomes purified from HEK293 cells overexpressing TMEM175 (TMEM175 sample, Figure 2B) and control lysosomes that were purified from HEK293 cells expressing endogenous TMEM175 (control sample, Figure 2C), using a low sample dilution to enhance the signal-to-noise.
We also performed a similar series of experiments on the SURFE^2R 96SE, essentially reproducing the results found with the SURFE^2R N1 (Figure 2E). […] Supplementary Figure S2 contains representative current traces and additional experimental details.
We applied a solution exchange from 50 mM NMDG-Cl to 50 mM of a different Cl salt at pH 7.6; (B) Representative current traces recorded with the TMEM175 sample. All traces are recorded from the same sensor; (C) Representative current traces recorded with the control sample. Currents reflect background signals (artifacts) resulting from ion–membrane interactions; (D) Average peak currents and SD for N = 5 sensors recorded with the TMEM175 and control samples; (E) Average peak currents and SEM for N = 16 sensors, recorded with the TMEM175 (left) and control (right) sample. […]
Ion selectivity of TMEM175 recorded on the SURFE2R 96SE. Representative current traces recorded using different cation species on TMEM175 and control samples using the SURFE2R 96SE. […]

TMEM175 [2] = target: T1, TMEM175; experiment: SSME H+ flux assay (pH jumps) on TMEM175 lysosomes (SURFE2R N1); type: biochemical; details: 10 mM 4-AP
Excerpt: To further investigate the capability of TMEM175 to translocate protons using SSME, we performed H^+ concentration or pH jumps using the SURFE^2R N1. The non-activating solution was set to pH 7.6, defining both the lysosomal and cytosolic pH before the start of the experiment. By exchanging the non-activating for the activating solution, we acidified the cytosolic solution and stimulated H^+ influx through TMEM175 (Figure 5A).
However, the application of pH jumps lead to significant artifact currents of positive magnitude, as observed with the control lysosomes (Figure 5C). These artifacts are a result of protons interacting with the lipid membranes and/or unknown H^+ leak pathways through the lysosomal membrane. To conclude pure TMEM175-related H^+ currents, we subtracted the artifact currents from the currents recorded with the TMEM175 sample. When plotting ΔpH against the artifact-corrected average TMEM175 net H^+ current, we obtain a close-to-linear correlation (Figure 5D).
For comparison with the I/c curve reported for K^+ (Figure 3E), we calculated the difference in H^+ concentration across the lysosomal membrane Δc = cH^out − cH^in, which correlates linearly with the passive H^+ flux J = PH+Δc according to Fick’s law.
We used H^+ concentration or pH jumps to measure H^+ flux through TMEM175. Non-activating solution was set to pH 7.6, while activating solution contained different pH values between pH 7.4 and pH 4.6; (B) Representative current traces induced by pH jumps on lysosomes overexpressing TMEM175. All current traces were recorded with the same sensor, starting from the lowest ΔpH. […] The remaining current mostly reflects the background (artifact) current after full block of TMEM175; (C) Representative current traces from the same experiment on control lysosomes. […] This represents the artifact current also underlying the currents recorded with the TMEM175 sample; (D) SEM and average, artifact-corrected, normalized peak currents from N = 4 sensors, reflecting the H^+ flux through TMEM175, solely driven by the pH gradient. […]

Compound: Nc1ccncc1 [4-AP, 4-aminopyridine]
- Block of TMEM175 net currents for K+, Rb+ and Cs+ (TMEM175 [1]): complete blockade
- Block of H+ influx current (TMEM175 [2]; ΔpH 3.0, pH 7.6 to 4.6): full block
- Effect on H+ efflux currents (TMEM175 [2]; potency lower than for H+ influx): inhibited
